Measured values published in ChEMBL document CHEMBL3045223, “Synthesis, nematicidal and antimicrobial properties of Bis-[4-methoxy-3-[3-(4-fluorophenyl)-6-(4-methylphenyl)-2(aryl)-tetrahydro-2H-pyrazolo[3,4-d]thiazol-5-yl]phenyl]methanes” (2009).
In brackets after ≈: the same amount, converted by molar mass. Activity calls are given as the source filed them. No cut-off for these calls is given here.

Columns and labels:
Format in all cases: functional
[1] = tested on: Trichophyton mentagrophytes; assay: Antifungal activity against Trichophyton mentagrophytes IFO 40996 assessed as growth inhibition at 37 degC for 48 hr; conditions: IFO 40996, 48 h
Trichophyton rubrum [2] = assay: Antifungal activity against Trichophyton rubrum IFO 9185 assessed as growth inhibition at 37 degC for 48 hr; conditions: IFO 9185, 48 h
Aspergillus fumigatus [3] = assay: Antifungal activity against Aspergillus fumigatus HIC 6094 assessed as growth inhibition at 37 degC for 48 hr
Candida albicans [4] = assay: Antifungal activity against Candida albicans ATCC 10231 assessed as growth inhibition at 37 degC for 48 hr; conditions: ATCC 10231, 48 h
[5] = tested on: Trichophyton mentagrophytes; assay: Antifungal activity against Trichophyton mentagrophytes IFO 40996 assessed as growth inhibition at 300 ug/disc at 37 degC for 48 hr
Trichophyton rubrum [6] = assay: Antifungal activity against Trichophyton rubrum IFO 9185 assessed as growth inhibition at 300 ug/disk at 37 degC for 48 hr
Aspergillus fumigatus [7] = assay: Antifungal activity against Aspergillus fumigatus HIC 6094 assessed as growth inhibition at 300 ug/disc at 37 degC for 48 hr
Candida albicans [8] = assay: Antifungal activity against Candida albicans ATCC 10231 assessed as growth inhibition at 300 ug/disk at 37 degC for 48 hr; conditions: ATCC 10231, 48 h, read-out: IZ
[9] = tested on: Chromobacterium violaceum; assay: Antibacterial activity against Chromobacterium violaceum MTCC 2656 assessed as growth arrest at 37 degC for 24 hr; conditions: MTCC 2656, 24 h
Klebsiella aerogenes [10] = assay: Antibacterial activity against Enterobacter aerogenes MTCC 39 assessed as growth arrest at 37 degC for 24 hr; conditions: MTCC 39, 24 h
Pseudomonas aeruginosa [11] = assay: Antibacterial activity against Pseudomonas aeruginosa MTCC 741 assessed as growth arrest at 37 degC for 24 hr; conditions: MTCC 741, 24 h
Staphylococcus aureus [12] = assay: Antibacterial activity against Staphylococcus aureus MTCC 96 assessed as growth arrest at 37 degC for 24 hr; conditions: MTCC 96, 24 h
[13] = tested on: Lysinibacillus sphaericus; assay: Antibacterial activity against Lysinibacillus sphaericus MTCC 11 assessed as growth arrest at 37 degC for 24 hr; conditions: MTCC 11, 24 h
Bacillus subtilis [14] = assay: Antibacterial activity against Bacillus subtilis MTCC 441 assessed as growth arrest at 37 degC for 24 hr; conditions: MTCC 441, 24 h
[15] = tested on: Chromobacterium violaceum; assay: Antibacterial activity against Chromobacterium violaceum MTCC 2656 assessed as inhibition zones at 300 ug/disk at 37 degC for 24 hr; conditions: MTCC 2656, 24 h, read-out: IZ
Klebsiella aerogenes [16] = assay: Antibacterial activity against Enterobacter aerogenes MTCC 39 assessed as inhibition zones at 300 ug/disk at 37 degC for 24 hr; conditions: MTCC 39, 24 h, read-out: IZ
Pseudomonas aeruginosa [17] = assay: Antibacterial activity against Pseudomonas aeruginosa MTCC 741 assessed as inhibition zones at 300 ug/disk at 37 degC for 24 hr; conditions: MTCC 741, 24 h, read-out: IZ
Staphylococcus aureus [18] = assay: Antibacterial activity against Staphylococcus aureus MTCC 96 assessed as inhibition zones at 300 ug/disc at 37 degC for 24 hr; conditions: MTCC 96, 24 h, read-out: IZ
[19] = tested on: Lysinibacillus sphaericus; assay: Antibacterial activity against Lysinibacillus sphaericus MTCC 11 assessed as inhibition zones at 300 ug/disk at 37 degC for 24 hr; conditions: MTCC 11, 24 h, read-out: IZ
Bacillus subtilis [20] = assay: Antibacterial activity against Bacillus subtilis MTCC 441 assessed as inhibition zones at 300 ug/disk at 37 degC for 24 hr; conditions: MTCC 441, 24 h, read-out: IZ
Caenorhabditis elegans = assay: Nematicidal activity against Caenorhabditis elegans assessed as immobility; conditions: read-out: LD50 (the source's name)
[21] = tested on: Ditylenchus myceliophagus; assay: Nematicidal activity against Ditylenchus myceliophagus assessed as immobility; conditions: read-out: LD50 (the source's name)

Row | SMILES | MBC [1] [µg/mL] | MIC [1] [µg/mL] | MBC (Trichophyton rubrum [2]) [µg/mL] | MIC (Trichophyton rubrum [2]) [µg/mL] | MBC (Candida albicans [4]) [µg/mL] | MIC (Candida albicans [4]) [µg/mL] | zone of inhibition at 300 µg/disc (Candida albicans [8]) [mm] | MBC [9] [µg/mL] | MIC [9] [µg/mL] | MBC (Klebsiella aerogenes [10]) [µg/mL] | MIC (Klebsiella aerogenes [10]) [µg/mL] | MBC (Pseudomonas aeruginosa [11]) [µg/mL] | MIC (Pseudomonas aeruginosa [11]) [µg/mL] | MBC (Staphylococcus aureus [12]) [µg/mL] | MIC (Staphylococcus aureus [12]) [µg/mL] | MBC [13] [µg/mL] | MIC [13] [µg/mL] | MBC (Bacillus subtilis [14]) [µg/mL] | MIC (Bacillus subtilis [14]) [µg/mL] | zone of inhibition at 300 µg/disc [15] [mm] | further results
1 | COc1ccc(N2N=C3C(SC(c4cc(Cc5ccc(OC)c(C6SC7C(=NN(c8ccc(OC)cc8)C7c7ccc(F)cc7)N6c6ccc(Cl)cc6)c5)ccc4OC)N3c3ccc(Cl)cc3)C2c2ccc(F)cc2)cc1 (centres undefined) | 50 (≈ 45.3 µM) | 25 (≈ 22.6 µM) | 50 (≈ 45.3 µM) | 25 (≈ 22.6 µM) | 50 (≈ 45.3 µM) | 25 (≈ 22.6 µM) | 14 | 50 (≈ 45.3 µM) | 6.25 (≈ 5.66 µM) | 25 (≈ 22.6 µM) | 12.5 (≈ 11.3 µM) | 50 (≈ 45.3 µM) | 12.5 (≈ 11.3 µM) | 25 (≈ 22.6 µM) | 12.5 (≈ 11.3 µM) | 50 (≈ 45.3 µM) | 12.5 (≈ 11.3 µM) | 12.5 (≈ 11.3 µM) | 12.5 (≈ 11.3 µM) | 23 | MBC (Aspergillus fumigatus [3]): inactive; MIC (Aspergillus fumigatus [3]): inactive; inhibition zone (IZ) [5]: inactive; inhibition zone (IZ) (Trichophyton rubrum [6]): inactive; inhibition zone (IZ) (Aspergillus fumigatus [7]): inactive; zone of inhibition at 300 µg/disc (Klebsiella aerogenes [16]): 21 mm; zone of inhibition at 300 µg/disc (Pseudomonas aeruginosa [17]): 20 mm; zone of inhibition at 300 µg/disc (Staphylococcus aureus [18]): 28 mm; zone of inhibition at 300 µg/disc [19]: 16 mm; zone of inhibition at 300 µg/disc (Bacillus subtilis [20]): 17 mm; LC50 (Caenorhabditis elegans): 820 µg/mL (≈ 743 µM); LC50 [21]: 900 µg/mL (≈ 815 µM)
2 | COc1ccc(Cc2ccc(OC)c(C3SC4C(=NN(c5ccccc5)C4c4ccc(F)cc4)N3c3ccc([N+](=O)[O-])cc3)c2)cc1C1SC2C(=NN(c3ccccc3)C2c2ccc(F)cc2)N1c1ccc([N+](=O)[O-])cc1 (centres undefined) | 12.5 (≈ 11.7 µM) | 12.5 (≈ 11.7 µM) | 25 (≈ 23.5 µM) | 6.25 (≈ 5.87 µM) | 25 (≈ 23.5 µM) | 12.5 (≈ 11.7 µM) | 8 | 50 (≈ 46.9 µM) | 25 (≈ 23.5 µM) | 25 (≈ 23.5 µM) | 12.5 (≈ 11.7 µM) | 25 (≈ 23.5 µM) | 6.25 (≈ 5.87 µM) | 25 (≈ 23.5 µM) | 6.25 (≈ 5.87 µM) | 12.5 (≈ 11.7 µM) | 6.25 (≈ 5.87 µM) | 25 (≈ 23.5 µM) | 12.5 (≈ 11.7 µM) | 11 | MBC (Aspergillus fumigatus [3]; HIC 6094, 48 h): 50 µg/mL (≈ 46.9 µM); MIC (Aspergillus fumigatus [3]; HIC 6094, 48 h): 12.5 µg/mL (≈ 11.7 µM); zone of inhibition at 300 µg/disc ([5]; IFO 40996, 48 h, read-out: IZ): 9 mm; zone of inhibition at 300 µg/disc (Trichophyton rubrum [6]; IFO 9185, 48 h, read-out: IZ): 10 mm; zone of inhibition at 300 µg/disc (Aspergillus fumigatus [7]; HIC 6094, 48 h, read-out: IZ): 11 mm; zone of inhibition at 300 µg/disc (Klebsiella aerogenes [16]): 24 mm; zone of inhibition at 300 µg/disc (Pseudomonas aeruginosa [17]): 11 mm; zone of inhibition at 300 µg/disc (Staphylococcus aureus [18]): 20 mm; zone of inhibition at 300 µg/disc [19]: 22 mm; zone of inhibition at 300 µg/disc (Bacillus subtilis [20]): 21 mm; LC50 (Caenorhabditis elegans): 620 µg/mL (≈ 582 µM); LC50 [21]: 800 µg/mL (≈ 751 µM)
